Data: ChEMBL document CHEMBL1136918, “Optimization of pyrazole inhibitors of Coactivator Associated Arginine Methyltransferase 1 (CARM1)” (Bioorg Med Chem Lett, 2009)

Legend:
[1] = target: T1, Histone-arginine methyltransferase CARM1 (Homo sapiens, UniProt Q86X55); experiment: Inhibition of CARM1 assessed as blockade of histone H3 methylation
T1 sequence (Q86X55 whole entry): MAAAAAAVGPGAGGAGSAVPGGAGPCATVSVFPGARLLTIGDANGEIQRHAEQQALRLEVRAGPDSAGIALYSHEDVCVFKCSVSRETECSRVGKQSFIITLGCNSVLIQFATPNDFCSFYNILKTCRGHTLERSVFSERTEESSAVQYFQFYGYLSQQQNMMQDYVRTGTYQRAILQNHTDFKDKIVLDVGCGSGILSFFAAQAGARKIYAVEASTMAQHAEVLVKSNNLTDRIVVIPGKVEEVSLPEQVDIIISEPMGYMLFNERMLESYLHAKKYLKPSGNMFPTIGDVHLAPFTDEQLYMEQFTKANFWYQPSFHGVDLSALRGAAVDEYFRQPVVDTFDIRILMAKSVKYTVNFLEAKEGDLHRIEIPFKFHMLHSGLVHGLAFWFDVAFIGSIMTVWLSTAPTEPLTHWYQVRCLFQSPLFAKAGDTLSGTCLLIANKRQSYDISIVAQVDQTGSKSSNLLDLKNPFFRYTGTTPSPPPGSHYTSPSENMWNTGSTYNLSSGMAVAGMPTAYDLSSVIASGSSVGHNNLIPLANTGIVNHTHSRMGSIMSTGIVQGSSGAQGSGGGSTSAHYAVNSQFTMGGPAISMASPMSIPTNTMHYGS

[2] = Membrane permeability by PAMPA; format: ADME; conditions: read-out: permeability
[3] = Metabolic stability in human microsomes per microgram of protein; format: ADME, Microsome
[4] = target: T2, Nuclear receptor subfamily 1 group I member 2 (Homo sapiens, UniProt O75469); experiment: Inhibition of human PXR
T2 sequence (O75469 whole entry): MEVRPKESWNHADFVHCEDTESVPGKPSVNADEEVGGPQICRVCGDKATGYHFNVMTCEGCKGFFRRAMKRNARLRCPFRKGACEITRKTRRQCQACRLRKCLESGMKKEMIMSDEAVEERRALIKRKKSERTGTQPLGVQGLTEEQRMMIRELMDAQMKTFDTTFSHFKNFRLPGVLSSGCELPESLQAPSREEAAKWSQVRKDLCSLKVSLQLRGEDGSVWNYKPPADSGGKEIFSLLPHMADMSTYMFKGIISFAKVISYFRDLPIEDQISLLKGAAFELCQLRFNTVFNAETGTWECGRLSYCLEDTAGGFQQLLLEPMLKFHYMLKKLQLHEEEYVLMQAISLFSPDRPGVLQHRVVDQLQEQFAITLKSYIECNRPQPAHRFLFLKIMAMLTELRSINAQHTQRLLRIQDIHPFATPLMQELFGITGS

[5] = Toxicity against human hepatocytes; format: cell-based, Hepatocyte
[6] = target: Cytochrome P450 3A4 (Homo sapiens, UniProt P08684); experiment: Inhibition of CYP3A4 expressed in human hepatocytes; format: ADME, cell-based, Hepatocyte
[7] = target: Cytochrome P450 2C9 (Homo sapiens, UniProt P11712); experiment: Inhibition of CYP2C9 expressed in human hepatocytes; format: ADME, cell-based, Hepatocyte
[8] = target: Cytochrome P450 2C19 (Homo sapiens, UniProt P33261); experiment: Inhibition of CYP2C19 expressed in human hepatocytes; format: ADME, cell-based, Hepatocyte
[9] = target: Cytochrome P450 2D6 (Homo sapiens, UniProt P10635); experiment: Inhibition of CYP2D6 expressed in human hepatocytes; format: ADME, cell-based, Hepatocyte
[10] = target: Protein arginine N-methyltransferase 1 (Homo sapiens, UniProt Q99873); experiment: Inhibition of PRMT1 by methylation assay
[11] = target: Protein arginine N-methyltransferase 3 (Homo sapiens, UniProt O60678); experiment: Inhibition of PRMT3 by methylation assay
Protein arginine N-methyltransferase 3, sequence (O60678 whole entry): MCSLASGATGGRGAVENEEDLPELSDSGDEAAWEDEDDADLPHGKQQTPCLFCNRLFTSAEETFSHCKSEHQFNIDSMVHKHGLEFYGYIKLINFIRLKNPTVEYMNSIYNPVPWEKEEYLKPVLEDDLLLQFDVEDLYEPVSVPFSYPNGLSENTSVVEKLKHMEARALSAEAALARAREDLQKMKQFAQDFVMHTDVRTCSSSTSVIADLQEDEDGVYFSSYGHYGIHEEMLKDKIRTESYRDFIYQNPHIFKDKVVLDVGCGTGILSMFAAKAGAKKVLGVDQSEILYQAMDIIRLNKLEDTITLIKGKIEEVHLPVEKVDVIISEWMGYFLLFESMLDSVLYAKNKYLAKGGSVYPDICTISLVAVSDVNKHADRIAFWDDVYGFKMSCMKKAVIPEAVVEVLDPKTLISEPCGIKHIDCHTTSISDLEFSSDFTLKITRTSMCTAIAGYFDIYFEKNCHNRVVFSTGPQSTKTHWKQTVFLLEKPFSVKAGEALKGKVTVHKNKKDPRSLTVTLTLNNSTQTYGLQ

Cytochrome P450 3A4, sequence (P08684 whole entry): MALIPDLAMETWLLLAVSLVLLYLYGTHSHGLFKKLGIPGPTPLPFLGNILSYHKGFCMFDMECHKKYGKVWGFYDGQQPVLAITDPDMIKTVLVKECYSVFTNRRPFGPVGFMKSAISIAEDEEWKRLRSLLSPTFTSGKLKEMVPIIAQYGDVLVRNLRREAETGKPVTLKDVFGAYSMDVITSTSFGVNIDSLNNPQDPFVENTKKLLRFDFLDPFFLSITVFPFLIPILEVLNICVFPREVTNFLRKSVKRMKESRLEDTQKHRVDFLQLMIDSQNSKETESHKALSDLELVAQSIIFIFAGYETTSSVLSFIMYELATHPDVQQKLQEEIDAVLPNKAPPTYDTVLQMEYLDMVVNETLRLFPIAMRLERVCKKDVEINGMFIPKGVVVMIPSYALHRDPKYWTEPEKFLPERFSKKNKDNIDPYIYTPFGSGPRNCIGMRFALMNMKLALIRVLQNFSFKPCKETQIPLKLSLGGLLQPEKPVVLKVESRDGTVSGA
Cytochrome P450 2C19, sequence (P33261 whole entry): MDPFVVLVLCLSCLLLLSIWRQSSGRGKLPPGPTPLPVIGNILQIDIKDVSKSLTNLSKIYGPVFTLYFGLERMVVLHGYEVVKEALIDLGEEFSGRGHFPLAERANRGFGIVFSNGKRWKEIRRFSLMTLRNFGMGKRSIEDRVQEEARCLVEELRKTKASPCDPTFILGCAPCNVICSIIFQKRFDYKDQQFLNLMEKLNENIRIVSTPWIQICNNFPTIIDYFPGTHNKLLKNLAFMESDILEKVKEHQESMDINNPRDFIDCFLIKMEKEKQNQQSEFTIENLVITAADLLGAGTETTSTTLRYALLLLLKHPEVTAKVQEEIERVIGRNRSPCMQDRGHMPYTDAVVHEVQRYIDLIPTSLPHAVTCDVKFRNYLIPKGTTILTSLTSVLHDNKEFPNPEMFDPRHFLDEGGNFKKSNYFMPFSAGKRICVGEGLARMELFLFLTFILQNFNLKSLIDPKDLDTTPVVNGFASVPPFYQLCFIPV
Cytochrome P450 2C9, sequence (P11712 whole entry): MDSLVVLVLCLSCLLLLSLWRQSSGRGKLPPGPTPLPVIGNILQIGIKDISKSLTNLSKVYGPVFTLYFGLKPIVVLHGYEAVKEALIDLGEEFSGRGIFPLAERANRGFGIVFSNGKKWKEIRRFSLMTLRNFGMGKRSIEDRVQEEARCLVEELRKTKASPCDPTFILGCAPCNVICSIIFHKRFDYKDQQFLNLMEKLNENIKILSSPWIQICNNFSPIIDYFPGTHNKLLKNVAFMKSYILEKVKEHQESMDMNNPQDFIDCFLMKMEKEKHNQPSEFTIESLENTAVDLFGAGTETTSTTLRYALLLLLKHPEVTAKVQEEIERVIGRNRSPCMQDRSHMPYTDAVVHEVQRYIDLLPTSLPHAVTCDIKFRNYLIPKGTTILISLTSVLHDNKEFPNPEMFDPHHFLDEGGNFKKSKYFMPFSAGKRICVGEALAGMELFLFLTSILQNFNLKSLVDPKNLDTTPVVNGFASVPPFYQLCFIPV
Cytochrome P450 2D6, sequence (P10635 whole entry): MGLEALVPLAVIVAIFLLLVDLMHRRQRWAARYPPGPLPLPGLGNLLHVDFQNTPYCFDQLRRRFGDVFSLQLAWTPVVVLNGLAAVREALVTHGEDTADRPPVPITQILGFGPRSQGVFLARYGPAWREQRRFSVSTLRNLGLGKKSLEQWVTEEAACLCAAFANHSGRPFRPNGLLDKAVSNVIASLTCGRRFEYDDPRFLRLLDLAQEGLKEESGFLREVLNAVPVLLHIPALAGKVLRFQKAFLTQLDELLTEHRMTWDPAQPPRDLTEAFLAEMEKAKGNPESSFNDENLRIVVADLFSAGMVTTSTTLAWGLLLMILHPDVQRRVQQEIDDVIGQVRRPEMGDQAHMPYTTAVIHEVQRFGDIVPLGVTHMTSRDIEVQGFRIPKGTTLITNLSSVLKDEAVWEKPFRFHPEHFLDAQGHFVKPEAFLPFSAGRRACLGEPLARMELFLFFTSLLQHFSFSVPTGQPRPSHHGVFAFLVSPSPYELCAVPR
Protein arginine N-methyltransferase 1, sequence (Q99873 whole entry): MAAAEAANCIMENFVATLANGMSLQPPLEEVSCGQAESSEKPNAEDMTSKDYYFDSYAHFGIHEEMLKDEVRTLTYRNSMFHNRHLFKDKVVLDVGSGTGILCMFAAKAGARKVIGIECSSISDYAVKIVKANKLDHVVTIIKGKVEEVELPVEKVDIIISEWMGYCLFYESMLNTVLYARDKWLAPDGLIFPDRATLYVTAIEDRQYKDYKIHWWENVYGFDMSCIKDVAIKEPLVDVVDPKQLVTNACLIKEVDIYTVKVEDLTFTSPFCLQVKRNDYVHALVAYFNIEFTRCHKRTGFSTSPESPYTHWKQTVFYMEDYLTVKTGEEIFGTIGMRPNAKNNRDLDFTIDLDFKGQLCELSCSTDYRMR

C[C@H](N)C(=O)N(C)Cc1cccc(-n2nc(C(F)(F)F)cc2-c2nnc(-c3ccccc3)o2)c1
IC50 [1]: > 10 µM

COc1ccccc1Nc1nnc(-c2cc(C(F)(F)F)nn2-c2cccc(CNC(=O)[C@H](C)N)c2)o1
Papp [2]: < 1.5 ×10⁻⁶ cm/s

C[C@H](N)C(=O)NCc1cccc(-n2nc(C(F)(F)F)cc2-c2nnc(-c3cccc4ncsc34)o2)c1
IC50 [1]: 0.04 µM
Papp [2]: 26.7 ×10⁻⁶ cm/s
Stability [3]: 0.026 nM/min
EC50 [4]: > 25 µM
IC50 [5]: > 100 µM
IC50 [6]: > 100 µM
IC50 [7]: > 100 µM
IC50 [8]: > 100 µM
IC50 [9]: > 100 µM
IC50 [10]: > 25 µM
IC50 [11]: > 25 µM

C[C@H](N)C(=O)NCc1cccc(-n2nc(C(F)(F)F)cc2C(=O)NCc2ccccc2)c1
Papp [2]: < 1.5 ×10⁻⁶ cm/s

C[C@H](N)CNCc1cccc(-n2nc(C(F)(F)F)cc2-c2nnc(-c3ccccc3)o2)c1
IC50 [1]: > 10 µM

C[C@H](N)C(=O)NCc1cccc(-n2nc(C(F)(F)F)cc2-c2nnc(-c3ccccc3)o2)c1
Papp [2]: 10.6 ×10⁻⁶ cm/s
